Measured values reported in ChEMBL document CHEMBL3046305, “Insecticidal and repellent action of allyl esters against Acyrthosiphon pisum (Hemiptera: Aphididae) and Tribolium castaneum (Coleoptera: Tenebrionidae)” (2013).
≈ marks a conversion by molar mass, not a printed value. Calls of active or inactive are those of the source. The rule behind the calls is not given here.

Experiments:
[1] = tested on: Acyrthosiphon pisum; test: Repellent effect in Acyrthosiphon pisum (pea aphid) at 0.1 ug/cm'2; assay type: functional, organism-based
[2] = tested on: Tribolium castaneum; test: Insecticidal activity against Tribolium castaneum (red flour beetle) Herbst assessed as mortality treated topically at 0.24 mg/insect measured per insect after 24 hr; assay type: functional
[3] = tested on: Acyrthosiphon pisum; test: Insecticidal activity against Acyrthosiphon pisum (pea aphid) assessed as mortality treated topically at 30 ug/insect measured after 24 hr; assay type: functional
[4] = tested on: Tribolium castaneum; test: Insecticidal activity against Tribolium castaneum (red flour beetle) assessed as mortality treated topically measured per insect after 24 hr; assay type: functional
[5] = tested on: Acyrthosiphon pisum; test: Insecticidal activity against Acyrthosiphon pisum (pea aphid) treated artificial diet with compound assessed as mortality at 0.7 mg/ml after 3 days; assay type: functional; details: 72 h
[6] = tested on: Acyrthosiphon pisum; test: Insecticidal activity against Acyrthosiphon pisum (pea aphid) treated artificial diet with compound assessed as mortality at 0.7 mg/ml after 1 day; assay type: functional; details: 24 h
[7] = tested on: Acyrthosiphon pisum; test: Insecticidal activity against Acyrthosiphon pisum (pea aphid) treated artificial diet with compound for 3 days assessed as mortality; assay type: functional; details: for LC50: Acyrthosiphon pisum, 72 h
[8] = tested on: Acyrthosiphon pisum; test: Insecticidal activity against Acyrthosiphon pisum (pea aphid) treated artificial diet with compound assessed as mortality at 0.1 mg/ml after 1 day; assay type: functional, organism-based
[9] = tested on: Tribolium castaneum; test: Repellent effect in Tribolium castaneum (red flour beetle) at 0.1 ug/cm'2 measured after 8 hr; assay type: functional, organism-based
[10] = tested on: Tribolium castaneum; test: Repellent effect in Tribolium castaneum (red flour beetle) at 10 ug/cm'2 measured after 4 hr; assay type: functional
[11] = tested on: Acyrthosiphon pisum; test: Repellent effect in Acyrthosiphon pisum (pea aphid) at 10 ug/cm'2; assay type: functional
[12] = tested on: Tribolium castaneum; test: Insecticidal activity against Tribolium castaneum (red flour beetle) assessed as mortality at 0.25 mg/insect; assay type: functional
[13] = tested on: Tribolium castaneum; test: Repellent effect in Tribolium castaneum (red flour beetle) at 10 ug/cm'2 measured after 24 hr; assay type: functional

Row | SMILES | Activity [1] | mortality [2] [%] | mortality [3] | LC50 [4] [mg] | LC90 [4] [mg] | mortality at 700 µg/mL [5] [%] | mortality at 700 µg/mL [6] [%] | LC90 [7] [µg/mL] | LC50 [7] [µg/mL] | mortality [8] | Activity [9] | Repellency [10] [%] | Repellency [11] [%] | LT50 [12] [h] | Activity [10] | Repellency [13] [%]
1 | C=CCOC(=O)c1ccco1 [ALLYL 2-FUROATE] | inactive | 45 | inactive | 0.2 | 0.46 | 68 | 52 | 2900 (≈ 19100 µM) | 210 (≈ 1380 µM) | inactive | – | – | – | – | – | –
2 | C=CCOC(=O)/C=C/c1ccccc1 [ALLYL CINNAMATE] | – | 45 | 75% | 0.2 | 0.28 | 100 | 86 | 180 (≈ 956 µM) | 30 (≈ 159 µM) | inactive | Active | 80 | 34 | <2 | – | –
3 | C=CCOC(=O)CCCCCC [ALLYL HEPTANOATE] | inactive | 45 | inactive | – | 0.32 | 72 | 53 | 1160 (≈ 6810 µM) | – | inactive | – | – | – | <2 | – | –
4 | C=CCOC(=O)CCCCC [ALLYL HEXANOATE] | inactive | 45 | inactive | – | 0.3 | – | – | – | – | inactive | – | – | – | – | inactive | –
5 | C=CCOC(=O)CCCCCCC [ALLYL OCTANOATE] | inactive | 45 | inactive | 0.1 | 0.16 | – | – | – | – | inactive | – | – | – | – | – | –
6 | CCN(CC)C(=O)c1cccc(C)c1 [DIETHYLTOLUAMIDE] | – | – | – | – | – | – | – | – | – | – | – | 60 | 50 | – | – | 84
